Data set [1] concerns L-929 mouse fibroblasts. The data set is described as follows: Toxicity assay (MTT, confluent layer). The note with it: L929; after 18 h. Type of data set: cell-based. The protocol: L-929 mouse fibroblasts from DSMZ cultivated at 37° C. and […] in DME medium (high glucose) supplemented with 10% fetal calf serum. Cell culture reagents came from Life Technologies Inc. (GIBCO BRL). […] of sus-pended cells (100,000/mL) were seeded into wells of 96-well plate. After 4 days when the cells had formed a confluent layer, […] of serial dilutions of the test compound were added to the cells. After 18 hours of incubation metabolic activity of the cells was determined using an MTT assay (Mosman et al., 1983).

In data set [2] the target is T1, spFoID (Streptococcus pneumoniae serotype 4, UniProt Q97RI9).
T1 construct: made in house; host or cells: E. coli BL21 (DE3)
As to the kind of experiment: Surface plasmon resonance assay. Type of data set: binding, S. pneumoniae. The note with it: read-out: KD (SPR). Here is the method: All surface plasmon resonance (SPR) experiments described in this study were performed on a Biacore X100 system. Different FoIDs with or without His-tag were coupled on CM5 sensor chips (GE Healthcare) by the amine coupling method using a kit from GE Healthcare Life Sciences (Freiburg, Germany). A pH scouting process was performed before protein immobilization to test the most appropriate buffer and the protein concentration for protein coupling. Finally, 20 μg/mL of ecFoID in 10 mM maleate buffer (pH 6.8), 30 μg/mL of ecFoID Q98H in 10 mM maleate buffer (pH 6.3), 40 μg/mL of ecFoID K54N in 10 mM maleate buffer (pH 5.8), 20 μg/mL of spFoID in 10 mM maleate buffer (pH 6.0) and 15 μg/mL of MTHFD2 (His-tag cleaved) in 10 mM maleate buffer (pH 6.8) were used for coupling. In the protein immobilization procedure, the contact time was calculated based on the pH scouting results to achieve -3000-5000 relative resonance units (RU). The buffer used in the SPR assays was 1×HBS-P buffer (10 mM HEPES pH 7.4, 150 mM NaCl, 0.05% Tween 20). The 1 mM stock solution of carolacton was prepared in 1×HBS-P buffer and diluted to different concentration ranges by two-fold serial dilution. In the SPR assay, the association time was 180 s and the dissociation time was 600 s. Data analysis was performed using the Biacore evaluation software. […]

The target in data set [3] is T1, spFoID. As to the kind of experiment: FoID dehydrogenase (DH) enzyme assay. Type of data set: biochemical, S. pneumoniae. Here is the method:
(6R,S)-5,10-Methylene-5,6,7,8-tetrahydrofolic acid ((6R,S)-5,10-CH2-THF), calcium salt and (6R,S)-5,10-Methenyl-5,6,7,8-tetrahydrofolic acid ((6R,S)-5,10-CH=THF) chloride were purchased from Schircks Laboratories (Bauma, Switzerland) and were used as substrates for FoID dehydrogenase and cyclohydrolase enzyme assays, respectively. Only the R-isomer, which accounts for 50% of (6R,S)-5,10-CH2-THF and (6R,S)-5,10-CH=THF, respectively, is used by the enzyme. (6R,S)-5,10-CH2-THF was dissolved in N2-spargeled basic buffer (50 mM Tris-HCl (pH 8.0), 100 mM β-mercaptoethanol) as described by Sah and Varshney, 2015a (6R,S)-5,10-CH=THF was first dissolved in DMSO as a 100 mM stock solution.
Because FoID is a bifunctional enzyme, dehydrogenase and cyclohydrolase activities were determined for FoID enzyme kinetics, respectively. The dehydrogenase activity of FoID was assayed for its substrate 5,10-CH2-THF and cofactor NADP+ (in the case of MTHFD2, NAD+ was used as cofactor) based on monitoring the formation of 5,10-CH=THF while the cyclohydrolase activity of FoID was determined for its substrate 5,10-CH=THF by monitoring the hydrolysis of 5,10-CH2-THF. The enzyme kinetics for the dehydrogenase activity of all FoIDs except hsMTHFD1_DC were determined at 30° C. in 50 mM Tris-HCl (pH 7.5), 30 mM β-mercaptoethanol. The hsMTHFD1_DC dehydrogenase activity was measured in 25 mM MOPS (pH 7.3), 30 mM β-mercaptoethanol at 30° C. To measure the enzyme kinetics constants for 5,10-CH2-THF, for example in the case of ecFoID, the NADP concentration was fixed at 1 mM and the concentration of 5,10-CH2-THF varied from 5 μM to 1,500 μM (R-isomer). Similarly, to measure the kinetic constants of ecFoID for NADP+, the concentration of 5,10-CH2-THF (R-isomer) was fixed at 1 mM and the concentration of NADP+ varied from 10 μM to 1,500 μM. For different FoIDs, the varied concentration range of substrates could be different. […] To monitor the formation of 5,10-CH=THF, the absorbance of the reaction mixture was monitored at 350 nm in micro UV cuvettes (BRAND, Essex, Connecticut, USA). The concentration of 5,10-CH=THF produced in the reaction was determined using an extinction co-efficient of 0.0249 μM-1 cm-1. […] The consumption of 5,10-CH=THF was measured by recording the absorbance of the reactions at 355 nm using the TECAN Infinite 200 PRO equipped with a monochromator. […] The inhibition constants (Ki) of carolacton on FoID were determined by measuring the apparent Km values when adding certain amounts of carolacton to the enzyme reactions. […] To compare the inhibition effects of carolacton between the different FoIDs, the half maximal inhibitory concentration (IC50) of carolacton on the same amount of enzyme was determined for FoIDs involved in this study. […]

Molecules are shown by their SMILES. Where two headings read alike, the source gives them in different places.

T1 sequence (Q97RI9 whole entry): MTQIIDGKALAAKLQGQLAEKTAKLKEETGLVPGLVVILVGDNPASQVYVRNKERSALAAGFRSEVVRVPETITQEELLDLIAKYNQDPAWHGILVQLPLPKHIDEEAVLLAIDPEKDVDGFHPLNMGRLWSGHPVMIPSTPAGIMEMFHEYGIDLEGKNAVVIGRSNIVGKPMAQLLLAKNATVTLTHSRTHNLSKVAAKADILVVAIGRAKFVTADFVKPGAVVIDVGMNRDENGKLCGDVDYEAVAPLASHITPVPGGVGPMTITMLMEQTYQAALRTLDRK

As a reminder, the Kd is the concentration at which binding is half-saturated. As a reminder, the IC50 is the concentration that inhibits the measured activity by half. A word on the IC80: it is the concentration needed for an effect of 80%. What is called Ki is a measure of affinity in units of concentration, obtained from inhibition or displacement. As to `CO[C@H](CC(=O)O)[C@@H](C)C(=O)[C@H](C)/C=C(\C)[C@H]1OC(=O)[C@H](O)[C@H](O)/C=C/[C@H](C)CCC[C@@H]1C` [Carolacton, carolacton], the acute toxicity entry in data set [1] is “no acute toxicity”. Further, the Kd in data set [2] was found to be 27 nM. Besides, the IC50 in data set [3] (10 nM enzyme, read-out: IC50, carolacton inhibition on DH activity) stood at 36.8 nM. For the same compound, the IC80 in data set [3] (10 nM enzyme, read-out: IC80, carolacton inhibition on DH activity) turned out to be 169 nM. The Ki in data set [3] (vs 5,10-CH2-THF, read-out: Ki (5,10-CH2—THF), carolacton inhibition on DH activity) was determined as 42.2 nM; in data set [3] (vs cofactor NADP+, read-out: Ki (NADP^+), carolacton inhibition on DH activity), 34.2 nM.

The values are drawn from patent US11357752B2, “Carolacton and derivatives thereof for use in the treatment of cell proliferation disorders” (Helmholtz-Zentrum für Infektionsforschung GmbH, priority 2017, dated 2022).
